Experimental data as given in patent US20200190073A1, “SUBSTITUTED SUCCINIMIDE DERIVATIVES AS PESTICIDES” (BASF SE, priority 2017, published 2020).
Where two headings read alike, the source gives them in different places.

Key:
Type in all cases: in vivo
[1] = test system: Rice Brown Plant Hopper (Nilaparvata lugens); test: CE.2 Rice brown plant hopper, comparative test; conditions: 10 ppm, after 72 hours, read-out: % mortality in comparison to untreated controls
Protocol: (§1) The tables show % mortality in comparison to untreated controls.
CE.2 Rice Brown Plant Hopper (Nilaparvata lugens)
Rice seedlings were cleaned and washed 24 hours before spraying. The active compounds were formulated in 50:50 acetone:water (vol:vol) and 0.1% vol/vol surfactant (EL 620) was added. Potted rice seedlings were sprayed with 5 ml test solution, air dried, placed in cages and inoculated with 10 adults. Treated rice plants were kept at about 28-29° C. and relative humidity of about 50-60%. Percent mortality was recorded after 72 hours.

[2] = test system: Boll Weevil (Anthonomus grandis); test: B.5 Boll weevil, insect diet with eggs; conditions: 120 h, read-out: mortality in comparison with untreated controls
How it was run: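 Compounds in 75% water/25% DMSO sprayed at several concentrations (5 μl, two replicates) onto insect diet in 96-well microtiter plates holding 5-10 A. grandis eggs. After 5 days at about 25±1° C and 75±5% relative humidity, egg and larval mortality scored visually.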

[3] = test system: Cowpea Aphid (Aphis Craccivora); test: CE.1 Cowpea aphid, comparative test; conditions: read-out: % mortality in comparison to untreated controls
Protocol: as §1
CE.1 Cowpea Aphid (Aphis Craccivora)
Potted cowpea plants colonized with approximately 100-150 aphids of various stages were sprayed after the pest population has been recorded. Population reduction was assessed after 24, 72, and 120 hours.

[4] = test system: Diamond back moth (Plutella xylostella); test: B.1 Diamond back moth, cabbage leaf dip; conditions: foliar, read-out: mortality in comparison with untreated controls
How it was run: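 Cabbage leaves were dipped in compound in 1:1 water:acetone with 0.01% surfactant, air-dried and infested with ten 3rd-instar larvae. Mortality and feeding damage (0–100% scale) were scored 72 h after treatment.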

[5] = test system: Green Soldier Stink Bug (Nezara viridula); test: B.11 Green soldier stink bug, sprayed soybean pods; conditions: 120 h, read-out: mortality in comparison with untreated controls
How it was run: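 Ten late 3rd-instar N. viridula on soybean pods in Petri dishes were sprayed with compound in 1:1 water:acetone plus 0.01% surfactant. Dishes were held at about 25° C. Percent mortality was scored after 5 days.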

[6] = test system: Tobacco Budworm (Heliothis virescens); test: B.4 Tobacco budworm, insect diet with eggs; conditions: 120 h, read-out: mortality in comparison with untreated controls
How it was run: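 Wells held insect diet and 15–25 H. virescens eggs; compounds at several concentrations, formulated in 75:25 v/v water:DMSO, were sprayed at 10 μl onto the diet in two replicates. After 5 days at about 28±1 °C and 80±5% relative humidity, egg and larval mortality was scored visually.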

[7] = test system: Southern Armyworm (Spodoptera eridania); test: B.10 Southern armyworm, sprayed lima bean plants; conditions: 96 h, read-out: mortality in comparison with untreated controls
Protocol: B.10 Southern Armyworm (Spodoptera eridania)
The active compounds were formulated in cyclohexanone as a 10,000 ppm solution supplied in tubes. The tubes were inserted into an automated electrostatic sprayer equipped with an atomizing nozzle and they served as stock solutions for which lower dilutions were made in 50% acetone:50% water (v/v). A nonionic surfactant (Kinetic®) was included in the solution at a volume of 0.01% (v/v).
Lima bean plants (variety Sieva) were grown 2 plants to a pot and selected for treatment at the 1st true leaf stage. Test solutions were sprayed onto the foliage by an automated electrostatic plant sprayer equipped with an atomizing spray nozzle. The plants were dried in the sprayer fume hood and then removed from the sprayer. Each pot was placed into perforated plastic bags with a zip closure. About 10 to 11 armyworm larvae were placed into the bag and the bags zipped closed. Test plants were maintained in a growth room at about 250C and about 20-40% relative humidity for 4 days, avoiding direct exposure to fluorescent light (24 hour photoperiod) to prevent trapping of heat inside the bags. Mortality and reduced feeding were assessed 4 days after treatment, compared to untreated control plants.

[8] = test system: Silverleaf Whitefly (Bemisia argentifolii); test: CE.4 Silverleaf whitefly, comparative test; conditions: 72 h, read-out: % mortality in comparison to untreated controls
Protocol: as §1
CE.4 Silverleaf Whitefly (Bemisia argentifolii)
The active compounds were formulated in 50:50 acetone:water (vol:vol) and 100 ppm Kinetica™ surfactant.
Selected cotton plants were grown to the cotyledon state (one plant per pot). The cotyledons were dipped into the test solution to provide complete coverage of the foliage and placed in a well-vented area to dry. Each pot with treated seedling was placed in a plastic cup and 10 to 12 whitefly adults (approximately 3-5 day old) were introduced. The insects were collected using an aspirator and a Tygon® tubing connected to a barrier pipette tip. The tip, containing the collected insects, was then gently inserted into the soil containing the treated plant, allowing insects to crawl out of the tip to reach the foliage for feeding. The cups were covered with a reusable screened lid. Test plants were maintained in the holding room at about 25° C. and about 20-40% relative humidity for 3 days avoiding direct exposure to the fluorescent light (24 hour photoperiod) to prevent trapping of heat inside the cup. Mortality was assessed 3 days after treatment of the plants.

[9] = 2500 ppm, egg and larval mortality, 5 days

| SMILES | mortality at 10 ppm [1] | mortality at 2500 ppm [2, 9] | mortality at 10 ppm ([3]; 10 ppm, sprayed cowpea plants) | mortality at 300 ppm ([4]; 300 ppm, cabbage leaf dip, 3rd instar larvae, 72 hours after treatment) | mortality at 300 ppm ([5]; 300 ppm, late 3rd instar, after 5 days) | mortality at 2500 ppm [6, 9] | mortality at 10 ppm [7] | mortality at 300 ppm [7] | mortality at 2500 ppm [2] | mortality at 10 ppm [3] | mortality at 300 ppm ([4]; 72 h) | mortality at 300 ppm [5] | mortality at 2500 ppm [6] | mortality at 10 ppm [8] |
| --- | --- | --- | --- | --- | --- | --- | --- | --- | --- | --- | --- | --- | --- | --- |
| CCN1C(=O)C[C@@H](NC(=O)c2ccc(C3=NOC(c4ccc(F)c(Cl)c4)(C(F)(F)F)C3)cc2Cl)C1=O (stereo partly drawn) [Compound I-1-53] | 75% | > 75% | 100% | > 75% | > 75% | > 75% |  |  |  |  |  |  |  |  |
| CN1C(=O)C[C@@H](NC(=O)c2ccc(C3=NOC(c4cc(Cl)c(F)c(Cl)c4)(C(F)(F)F)C3)cc2Cl)C1=O (stereo partly drawn) [Compound I-1-13] |  |  |  |  |  |  | > 75% | > 75% | > 75% | 90% | > 75% | > 75% | > 75% |  |
| CN1C(=O)CC(NC(=O)c2ccc(C3=NOC(c4cc(Cl)c(F)c(Cl)c4)(C(F)(F)F)C3)cc2Cl)C1=O (stereo not drawn) [Compound I-1-2, 2-Chloro-4-[5-(3,5-dichloro-4-fluoro-phenyl)-5-(trifluoromethyl)-4H-isoxazol-3-yl]-N-(1-methyl-2,5-dioxo-pyrrolidin-3-yl)benzamide] |  |  |  |  |  |  | > 75% |  | > 75% |  | > 75% | > 75% | > 75% | 88% |
| CN1C(=O)CC(NC(=O)c2ccc(C3=NOC(c4cc(Cl)c(F)c(Cl)c4)(C(F)(F)F)C3)c3c2CCC3)C1=O (stereo not drawn) [Compound I-1-10] |  |  |  |  |  |  | > 75% |  | > 75% |  | > 75% | > 75% | > 75% |  |
| CCN1C(=O)CC(NC(=O)c2ccc(C3=NOC(c4cc(Cl)c(F)c(Cl)c4)(C(F)(F)F)C3)cc2Cl)C1=O (stereo not drawn) [Compound I-1-3] |  |  |  |  |  |  | > 75% |  | > 75% |  | > 75% | > 75% | > 75% | 75% |
